From ChEMBL document CHEMBL5375968, “Peptide TK-HR from the Skin of Chinese Folk Medicine Frog Hoplobatrachus Rugulosus Accelerates Wound Healing via the Activation of the Neurokinin-1 Receptor” (J Med Chem, 2023)
Each block holds one compound with its values, some of them ahead of it. Activity calls are given as the source filed them. The calls are words filed in the database; no cut-off is given here. Residues, ends and D or L forms follow the SMILES beside them.

Assays:
Neutrophil [1] = test: Induction of chemotaxis in BALB/c mouse neutrophils assessed as increase in ratio of cell polarization at 100 nM measured for 15 mins by Zigmond-chamber based microscopy (reference value: 14.6 %); type: functional; conditions: 0.25 h
Neutrophil [2] = test: Induction of ROS production in BALB/c mouse neutrophils at 100 nM incubated for 2 hrs by DCFH-DA staining based analysis; type: functional, cell-based
[3] = Drug uptake in Aprepitant-treated HUVEC cells at 5 to 20 uM incubated for 30 mins by flow cytometry; type: ADME, cell-based; conditions: human, 0.5 h, dose 5-20 µM
[4] = Drug uptake in HUVEC cells incubated for 30 mins by flow cytometry; type: ADME, cell-based; conditions: human, 0.5 h, dose 5-20 µM
[5] = Drug uptake in Aprepitant-treated mouse RAW264.7 cells at 20 uM incubated for 30 mins by flow cytometry; type: ADME, cell-based; conditions: raw264.7, 0.5 h
HaCaT [6] = test: Drug uptake in human HaCaT cells incubated for 30 mins by flow cytometry; type: functional, cell-based; conditions: dose 5-20 µM
[7] = Drug uptake in Aprepitant-treated BALB/c mouse neutrophils at 20 uM incubated for 30 mins by flow cytometry; type: ADME, cell-based; conditions: neutrophil, 0.5 h
HaCaT [8] = test: Drug uptake in Aprepitant-treated human HaCaT cells 5 to 20 uM incubated for 30 mins by flow cytometry; type: functional, cell-based; conditions: dose 5-20 µM
[9] = Drug uptake in BALB/c mouse neutrophils by flow cytometry; type: ADME, cell-based; conditions: neutrophil, dose 2.5-40 µM
[10] = Drug uptake in mouse RAW264.7 cells by flow cytometry; type: ADME, cell-based; conditions: dose 2.5-40 µM

Compound: CSCC[C@H](NC=O)C(=O)N[C@@H](CC(C)C)C(=O)N[C@@H](Cc1ccccc1)C(=O)O
Activity (Neutrophil [1]): 56.3%

Compound: CCCCCCCCCCCCCC(=O)O[C@@H]1[C@@H](C)[C@]2(O)[C@@H](C=C(CO)C[C@]3(O)C(=O)C(C)=C[C@@H]23)[C@@H]2C(C)(C)[C@]12OC(C)=O
Activity (Neutrophil [2]): Active

Drug uptake [3]: Not Active
Drug uptake [4]: Dose-Dependent Effect
Drug uptake [5]: Not Active
Drug uptake [7]: Not Active
Drug uptake [9]: Dose-Dependent Effect
Drug uptake [10]: Dose-Dependent Effect
Compound: CSCC[C@H](NC(=O)[C@H](CC(C)C)NC(=O)CNC(=O)[C@H](Cc1ccc(O)cc1)NC(=O)[C@H](Cc1ccccc1)NC(=O)[C@H](CCCNC(=N)N)NC(=O)[C@H](CC(=O)O)NC(=O)[C@@H]1CCCN1C(=O)[C@H](CC(N)=O)NC(=O)[C@@H]1CCCN1C(=O)[C@H](CCCCN)NC(=S)Nc1ccc(-c2c3ccc(=O)cc-3oc3cc(O)ccc23)c(C(=O)O)c1)C(N)=O (HELM PEPTIDE1{[O=C(O)c1cc(NC(=S)[*:2])ccc1-c1c2ccc(=O)cc-2oc2cc(O)ccc12].K.P.N.P.D.R.F.Y.G.L.M.[am]}$$$$V2.0)
Drug uptake (HaCaT [6]): Dose-Dependent Effect
Drug uptake (HaCaT [8]): inactive
